This note sets out measurements from patent US20250170099A1, “TREATMENT OF POSTNATAL DEPRESSION” (GH RESEARCH IRELAND LIMITED, priority 2022, published 2025).

In data set [1] the test system is human hepatocytes. In words: Metabolite identification in human hepatocytes. Type of data set: in vitro ADME. The following applies: for relative proportion of compounds identified: 5-MeO-DMT 10 μM, up to 120 minutes. On the procedure:
All samples were stored at −80° C. (nominal) prior to analysis.
Appropriate blank and control samples were also analysed. […] (nominal).

Data set [2] can be described thus: Pharmacokinetics of 5-MeO-DMT and bufotenine after inhalation. Type of data set: in vivo, human.
Data set [3] has as its system human hepatocytes. In words: Metabolic stability in Hμrel human hepatocyte co-culture. Type of data set: in vitro ADME. As to conditions: for relative LC/MS peak area: 0 h. On the procedure: The incubations were performed using 1 and 10 μM initial concentrations and sampling at 0, 1, 2, 4, 8, 24, 48, and 72 hours (h) time points. The samples were analysed using UPLC/QE-orbitrap-MS.

The next data set concerns human plasma protein. Kind of data set: Binding to human plasma protein (unbound fraction). The format is in vitro ADME. The method, then: Binding to human plasma protein was determined. Reported are the unbound fraction (fu) for three replicates as well as the mean unbound fraction, the standard deviation and the mean % recovery (Table 8).

Bounds are passed on as bounds.

As for `CN(C)CCc1c[nH]c2ccc(O[C@@H]3O[C@H](C(=O)O)[C@@H](O)[C@H](O)[C@H]3O)cc12` [Bufotenine glucuronide], the “detection in the hepatocyte assay” value with human hepatocytes [1] is “not detected”.

Turning to `COc1ccc2[nH]cc(CC[N+](C)(C)[O-])c2c1` [5-MeO-DMT-N-oxide], in the data set with human hepatocytes [1], the “relative proportion of compounds identified” value (“relative proportion” below) is reported as 1%.

Turning to `CN(C)CCc1c[nH]c2ccc(O)cc12` [bufotenine, Bufotenine], in the data set on human hepatocytes [1], the “relative proportion” value came out at 5%. Moreover, the “detection in human serum” value in data set [2] (15 minutes after administration of 5-MeO-DMT) is recorded as “In no case is it detected”. Besides, the bufotenine blood concentration in data set [2] (from 15 min after 5-MeO-DMT inhalation, LLOQ) was less than 25 pg/mL.

On to `COc1ccc2[nH]cc(CCO)c2c1` [5-methoxytryptophol, 5-Methoxyindole-3-ethanol], for which the “disappearance with stromal cell controls” value with human hepatocytes [3] is given as “no disappearance”. In addition, the “relative LC/MS peak area” value is recorded as 100% in the data set with human hepatocytes [3] (1 μM, hepatocytes); 100% in the data set on human hepatocytes [3] (1 μM, stromal cells); 100% in the data set with human hepatocytes [3] (10 μM, hepatocytes); 100% in the data set on human hepatocytes [3] (10 μM, stromal cells). Also, in the data set with human hepatocytes [1], the “presence in subsequent assays” value is “repeatedly failed to detect”. In the data set on human hepatocytes [1], the “relative proportion” value was determined as 25%.

Turning to 5-Methoxyindole acetic acid [5-MIAA], the “disappearance with stromal cell controls” value with human hepatocytes [3] is “no disappearance”. Besides, the “in vitro intrinsic clearance” value in the data set on human hepatocytes [3] (1 μM, human hepatocytes) was 0.15 μl/min/million cells. Moreover, in the data set with human hepatocytes [3] (72 h, hepatocytes, 1 and 10 μM), the remaining abundance was 75-82%. Also, the “plasma binding (mean fraction unbound)” value in the data set on human plasma protein is reported as approximately 50%. In addition, the “time for removal from circulation by renal clearance” value in the data set on human plasma protein (from glomerular filtration rate 90-120 ml/min) was 1 to 2 h. The “presence in subsequent assays” value with human hepatocytes [1] was “predominant metabolite”.
